Laboratory results as given in ChEMBL document CHEMBL1201862, “PubChem BioAssay data set” (2004).
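1) Cells in 96-well plates. 2) Compound, 48 h, 5 concentrations. 3) Linear interpolation between surrounding doses. 4) Unreached endpoint = highest concentration. GI50 marks 50% less growth.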 Active and inactive are the calls of the source. Cut-off read from the data, not from the text of the source: active = GI50 up to about 1.1 µM and inactive = higher.

Experiments:
Assay in all cases: NCI-60 cell line screen, 48 h
SK-MEL-28 = test system: SK-MEL-28
HL-60 = test system: HL-60
SNB-75 = test system: SNB-75
SF-268 = test system: SF-268
SW-620 = test system: SW-620
SF-539 = test system: SF-539
SNB-19 = test system: SNB-19
A549 = test system: A549
DU-145 = test system: DU-145
HCC 2998 = test system: HCC 2998
HOP-92 = test system: HOP-92
U-251 = test system: U-251
IGROV-1 = test system: IGROV-1
Hs-578T = test system: Hs-578T
NCI/ADR-RES = test system: NCI/ADR-RES
MDA-MB-435 = test system: MDA-MB-435
Malme-3M = test system: Malme-3M
SK-MEL-2 = test system: SK-MEL-2
OVCAR-5 = test system: OVCAR-5
PC-3 = test system: PC-3
786-0 = test system: 786-0
COLO 205 = test system: COLO 205
M14 = test system: M14
CAKI-1 = test system: CAKI-1
NCI-H460 = test system: NCI-H460
UO-31 = test system: UO-31
RPMI-8226 = test system: RPMI-8226
K562 = test system: K562
SF-295 = test system: SF-295
OVCAR-4 = test system: OVCAR-4
SK-OV-3 = test system: SK-OV-3
ACHN = test system: ACHN
HT-29 = test system: HT-29
SN12C = test system: SN12C
CCRF-CEM = test system: CCRF-CEM
OVCAR-8 = test system: OVCAR-8
MOLT-4 = test system: MOLT-4
HOP-62 = test system: HOP-62
BT-549 = test system: BT-549
NCI-H23 = test system: NCI-H23
EKVX = test system: EKVX
NCI-H226 = test system: NCI-H226
KM12 = test system: KM12
MCF7 = test system: MCF7
UACC-257 = test system: UACC-257
OVCAR-3 = test system: OVCAR-3
MDA-MB-231 = test system: MDA-MB-231
HCT-15 = test system: HCT-15
SR = test system: SR
UACC-62 = test system: UACC-62
LOX IMVI = test system: LOX IMVI
HCT-116 = test system: HCT-116
TK-10 = test system: TK-10
NCI-H522 = test system: NCI-H522
RXF 393 = test system: RXF 393
SK-MEL-5 = test system: SK-MEL-5
A498 = test system: A498
MDA-N = test system: MDA-N
T47D = test system: T47D

Measured: GI50

Cc1ccc2nc(CN3CCCCC3)cc(=O)n2c1
> 100 µM: HCT-15
inactive: SK-MEL-28 > 100 µM | HL-60 > 100 µM | SNB-75 > 100 µM | SF-268 > 100 µM | SW-620 > 100 µM | SF-539 > 100 µM | SNB-19 > 100 µM | A549 > 100 µM | DU-145 > 100 µM | HCC 2998 > 100 µM | HOP-92 > 100 µM | U-251 > 100 µM | IGROV-1 > 100 µM | Hs-578T > 100 µM | NCI/ADR-RES > 100 µM | MDA-MB-435 > 100 µM | Malme-3M > 100 µM | SK-MEL-2 > 100 µM | OVCAR-5 > 100 µM | PC-3 > 100 µM | 786-0 > 100 µM | COLO 205 > 100 µM | M14 > 100 µM | CAKI-1 > 100 µM | NCI-H460 > 100 µM | UO-31 > 100 µM | RPMI-8226 > 100 µM | K562 > 100 µM | SF-295 > 100 µM | OVCAR-4 > 100 µM | SK-OV-3 > 100 µM | ACHN > 100 µM | HT-29 > 100 µM | SN12C > 100 µM | CCRF-CEM > 100 µM | OVCAR-8 > 100 µM | MOLT-4 > 100 µM | HOP-62 > 100 µM | BT-549 > 100 µM | NCI-H23 > 100 µM | EKVX > 100 µM | NCI-H226 > 100 µM | KM12 > 100 µM | MCF7 > 100 µM | UACC-257 > 100 µM | OVCAR-3 > 100 µM | MDA-MB-231 > 100 µM | SR > 100 µM | UACC-62 > 100 µM | LOX IMVI > 100 µM | HCT-116 > 100 µM | TK-10 > 100 µM | NCI-H522 > 100 µM

COC(=O)C1CCCN1C(=O)C(Cc1cn(S(=O)(=O)c2ccc(C)cc2)cn1)NC(=O)OC(C)(C)C (centres undefined)
> 100 µM: HCT-15
inactive: SK-MEL-28 > 100 µM | HL-60 > 100 µM | SNB-75 > 100 µM | SW-620 > 100 µM | SNB-19 > 100 µM | A549 > 100 µM | HCC 2998 > 100 µM | HOP-92 > 100 µM | U-251 > 100 µM | IGROV-1 > 100 µM | Hs-578T > 100 µM | Malme-3M > 100 µM | RXF 393 > 100 µM | SK-MEL-2 > 100 µM | SK-MEL-5 > 100 µM | OVCAR-5 > 100 µM | PC-3 > 100 µM | 786-0 > 100 µM | COLO 205 > 10 µM | M14 > 100 µM | NCI-H460 > 100 µM | UO-31 > 100 µM | RPMI-8226 > 100 µM | K562 > 100 µM | A498 > 100 µM | MDA-N > 100 µM | ACHN > 100 µM | HT-29 > 100 µM | SN12C > 100 µM | CCRF-CEM > 100 µM | OVCAR-8 > 100 µM | MOLT-4 > 100 µM | HOP-62 > 100 µM | BT-549 > 100 µM | NCI-H23 > 100 µM | EKVX > 100 µM | NCI-H226 > 100 µM | KM12 > 100 µM | MCF7 > 100 µM | UACC-257 > 100 µM | MDA-MB-231 > 100 µM | SR > 100 µM | UACC-62 > 100 µM | HCT-116 > 100 µM | TK-10 > 100 µM

COC(=O)/C=C(\C)CC(O)/C=C(\C)CCC=C(C)C (centres undefined)
58.6 µM: HCT-15
inactive: SK-MEL-28 69 µM | HL-60 17.4 µM | SNB-75 9.44 µM | SW-620 60.8 µM | SF-539 > 100 µM | SNB-19 > 100 µM | A549 34.3 µM | HCC 2998 27.9 µM | HOP-92 71.6 µM | U-251 42.7 µM | IGROV-1 > 100 µM | Hs-578T 80 µM | NCI/ADR-RES 16.2 µM | Malme-3M 39.6 µM | RXF 393 31.7 µM | SK-MEL-2 19.1 µM | SK-MEL-5 19.5 µM | OVCAR-5 > 100 µM | PC-3 29.8 µM | 786-0 80.5 µM | COLO 205 41.2 µM | M14 38.5 µM | CAKI-1 92.7 µM | NCI-H460 49.7 µM | UO-31 33.5 µM | K562 32.1 µM | A498 34.7 µM | MDA-N 35.5 µM | SF-295 38.1 µM | OVCAR-4 44 µM | SK-OV-3 > 100 µM | ACHN 64.7 µM | HT-29 24.1 µM | SN12C > 100 µM | CCRF-CEM 30.8 µM | OVCAR-8 22.3 µM | MOLT-4 18.7 µM | HOP-62 > 100 µM | BT-549 31.2 µM | NCI-H23 26.9 µM | EKVX 46.1 µM | NCI-H226 45 µM | KM12 40.4 µM | MCF7 31.4 µM | UACC-257 47.4 µM | OVCAR-3 22.7 µM | MDA-MB-231 > 100 µM | SR 23 µM | UACC-62 40.7 µM | LOX IMVI 29.4 µM | HCT-116 40.5 µM | TK-10 55.8 µM

Cc1ccccc1C(=O)NC(O)(C(F)(F)F)C(F)(F)F
> 100 µM: HCT-15
active: SNB-75 0.0302 µM
inactive: SK-MEL-28 > 100 µM | HL-60 54.7 µM | SF-268 > 100 µM | SW-620 > 100 µM | SF-539 > 100 µM | SNB-19 > 100 µM | A549 82.4 µM | DU-145 > 100 µM | HCC 2998 > 100 µM | HOP-92 > 100 µM | U-251 > 100 µM | IGROV-1 > 100 µM | Hs-578T 22.5 µM | NCI/ADR-RES 70 µM | MDA-MB-435 > 100 µM | Malme-3M 28.2 µM | RXF 393 > 100 µM | SK-MEL-2 56.1 µM | SK-MEL-5 94 µM | OVCAR-5 > 100 µM | PC-3 25.5 µM | 786-0 > 100 µM | COLO 205 > 100 µM | M14 > 100 µM | CAKI-1 > 100 µM | NCI-H460 84.9 µM | UO-31 34.8 µM | RPMI-8226 49.1 µM | K562 57.9 µM | T47D 65.2 µM | A498 > 100 µM | MDA-N > 100 µM | SF-295 > 100 µM | OVCAR-4 51.8 µM | SK-OV-3 > 100 µM | ACHN > 100 µM | HT-29 91.2 µM | SN12C > 100 µM | CCRF-CEM 58.3 µM | OVCAR-8 > 100 µM | MOLT-4 35.9 µM | HOP-62 > 100 µM | NCI-H23 78.2 µM | EKVX > 100 µM | NCI-H226 > 100 µM | KM12 42.5 µM | MCF7 > 100 µM | UACC-257 61.9 µM | OVCAR-3 35.1 µM | MDA-MB-231 > 100 µM | LOX IMVI > 100 µM | HCT-116 > 100 µM | TK-10 > 100 µM | NCI-H522 47 µM

C=C(C)[C@@H]1CC[C@@H](C)[C@](O)([C@@H]2C[C@@H]([C@H](COC(=O)c3ccccc3)OC(=O)c3ccccc3)OC2=O)C1
> 100 µM: HCT-15
inactive: SK-MEL-28 > 100 µM | SNB-75 > 100 µM | SF-268 > 100 µM | SW-620 > 100 µM | SF-539 > 100 µM | SNB-19 > 100 µM | A549 > 100 µM | DU-145 > 100 µM | HCC 2998 > 100 µM | U-251 > 100 µM | IGROV-1 > 100 µM | NCI/ADR-RES > 100 µM | MDA-MB-435 > 100 µM | Malme-3M > 100 µM | RXF 393 > 100 µM | SK-MEL-2 > 100 µM | SK-MEL-5 > 100 µM | OVCAR-5 > 100 µM | PC-3 46.1 µM | 786-0 > 100 µM | COLO 205 > 100 µM | M14 > 100 µM | CAKI-1 > 100 µM | NCI-H460 39.1 µM | UO-31 29 µM | RPMI-8226 54 µM | K562 > 100 µM | A498 > 100 µM | MDA-N > 100 µM | SF-295 > 100 µM | OVCAR-4 59.4 µM | SK-OV-3 > 100 µM | ACHN > 100 µM | HT-29 > 100 µM | SN12C > 100 µM | CCRF-CEM > 100 µM | OVCAR-8 > 100 µM | MOLT-4 28 µM | HOP-62 > 100 µM | BT-549 > 100 µM | NCI-H23 > 100 µM | EKVX > 100 µM | NCI-H226 > 100 µM | KM12 > 100 µM | MCF7 > 100 µM | UACC-257 > 100 µM | OVCAR-3 > 100 µM | MDA-MB-231 > 100 µM | SR 24.9 µM | UACC-62 > 100 µM | LOX IMVI > 100 µM | HCT-116 > 100 µM | TK-10 > 100 µM | NCI-H522 > 100 µM
